Results published in patent publication US20120329854A1, “Methods and Compounds for the Diagnosis and Treatment for Cancer” (UNIVERSITÄTSKLINIKUM FREIBURG, priority 2009, published 2012).
“Also recorded” adds a separate entry of the source.

How the values were obtained:
Type in all cases: cell-based, human
[1] = test system: PKCβI S660ph at the KLK2 and FKBP5 promoters; assay: ChIP with α-PKCβI S660ph antibody in LNCaP cells
Procedure: (§1) ChIP and Re-ChIP experiments were performed as described^3. LNCaP cells were cultured for 15 min (ChIP) or 210 min (Re-ChIP) in the presence or absence of 1×10^−8M R1881 as indicated. Three days before harvesting, cells were transfected with siRNA (control for PKCβI: 5′-[…]-3′(SEQ ID NO 3); PKCβI: 5′-[…]-3′ (SEQ ID NO 4) (FIG. 3 b, c, f-i); control for PRK1: 5′-[…]-3′ (SEQ ID NO 14); PRK1: 5′-[…]-3′ (SEQ ID NO: 15) (FIG. 3 d, e); Invitrogen) using RNAifect (Qiagen) following the manufacturer's instructions. Immunoprecipitation was performed with specific antibodies (α-AR #06-680 lot 33529 (Upstate Biotechnology), α-H3K4me1 #ab8895 lot 535654, α-H3T6ph #ab14102 lot 481643, α-H3 #ab1791 lot 172452, α-PKCβI S660ph #ab23513 lot 596904 (Abcam), α-PKCβI (C-16) #sc-209 lot 481643, (Santa Cruz), α-H3K4me2 #cs-035-100 lot A391001 (Diagenode), α-PRK1^3, and α-LSD1^2) on protein A-Sepharose 4B (GE-Healthcare). For PCR, 2 μl out of 50 μl DNA extract was used. PCR primers for FKBP5 (+351/+443), KLK2 (−343/−90), SCN1A, SCN2A, GAPDH, and U6 were described previously^1, 2, 6, 11.

[2] = test system: H3T6ph at the AREs of the KLK2 and FKBP5 promoters; assay: ChIP with α-H3T6ph antibody in LNCaP cells; details: for androgen-induced phosphorylation of H3T6 at the AREs of the KLK2 and FKBP5 promoters upon knockdown: siRNA transfection three days before harvesting, 1×10^−8 M R1881, versus control siRNA
Procedure: as §1

[3] = test system: H3K4me2 and H3K4me1 at the KLK2 and FKBP5 promoters; assay: ChIP with α-H3K4me2 and α-H3K4me1 antibodies in LNCaP cells
Procedure: as §1

[4] = test system: AR, LSD1, PKCβI on AR-regulated genes; assay: ChIP for occupancy of AR, LSD1 and PKCβI on AR target promoters in LNCaP cells
Procedure: as §1

AR = assay: Western blot analysis of endogenous AR in LNCaP cells; details: siRNA transfection (FIG. 3c, 3e right panels)
Procedure: Experiments were performed as described^2. Western blots were decorated as indicated.

Row | Molecule | phosphorylation at S660 of PKCβI at the KLK2 and FKBP5 promoters on addition of ligand ([1]; R1881 versus absence of ligand (FIG. 3b, c)) | phosphorylation of H3T6 at the AREs of the KLK2 and FKBP5 promoters on addition of ligand ([2]; 1×10^−8 M R1881 versus absence of ligand (FIG. 3b, c)) | levels of H3K4me2 and H3K4me1 at the KLK2 and FKBP5 promoters on addition of ligand ([3]; R1881 versus absence of ligand (FIG. 3f, g)) | ligand-dependent activation of PKCβI (S660ph) upon knockdown ([1]; siRNA transfection, with R1881 (FIG. 3d, e)) | androgen-induced phosphorylation of H3T6 at the AREs of the KLK2 and FKBP5 promoters upon knockdown [2] | presence of PKCβI on AR target promoters upon knockdown ([4]; siRNA transfection (FIG. 3d, e)) | levels of endogenous AR upon knockdown (AR) | ligand-dependent recruitment of AR and presence of LSD1 on AR-regulated genes upon knockdown ([4]; siRNA transfection (FIG. 3b, c)) | H3K4me2 and H3K4me1 levels at the KLK2 and FKBP5 promoters upon knockdown ([3]; in the absence of R1881 (FIG. 3f, g)) | H3K4me2 and H3K4me1 levels at the KLK2 and FKBP5 promoters upon knockdown ([3]; in the presence of R1881 (FIG. 3f, g))
1 | C[C@]1(O)CC[C@H]2[C@@H]3CCC4=CC(=O)CCC4=C3C=C[C@@]21C [R1881, reference compound] | androgen-induced phosphorylation at 5660 of PKCβI | results in phosphorylation of H3T6 | increased | – | – | – | – | – | – | –
2 | 5′-GAACAUGAUCCAGACCUACAGCAAU-3′ (listed as RNA, chemistry not given here) [siRNA directed against PRK1, siRNA against Protein-kinase-C-related kinase 1 (PRK1), Invitrogen, reference compound] | – | – | – | blocked | abolished | does neither affect | does neither affect | – | – | –
3 | 5′-CAUUGUCCUCGUAAGAGAUGCUAAA-3′ (listed as RNA, chemistry not given here) [siRNA directed against PKCβI] | – | – | – | – | blocked; also recorded: blunts | – | does not affect | does neither affect | Elevated levels | reduces H3K4me2 and H3K4me1 levels to those observed in the absence of R1881
